Laboratory results as given in publication PMC7031696 (Cell chemical biology, 2019).
Read-outs that look alike come from different tables or passages of the source.

Legend:
[1] = test system: Plasmodium falciparum 3D7-A10 parasites; experiment: Stage specificity assay (8-h exposure of synchronized stages, IC50^8h); format: cell-based; details: for IC50: Plasmodium falciparum
[2] = test system: asynchronous 3D7-A10 parasite cultures; experiment: Standard 72-h exposure asexual blood stage susceptibility assay (IC50^72h); format: cell-based, Plasmodium falciparum; details: Plasmodium falciparum, 3D7, 72 h, read-out: Overall (72hr assay) Mean IC50 (IC50^72h)
[3] = test system: 3D7-MR4 trophozoite parasite-infected RBCs; experiment: Metabolomic profiling (hydrophilic metabolite changes, UHPLC-MS); format: cell-based, Plasmodium falciparum

OC(c1cc(C(F)(F)F)nc2c(C(F)(F)F)cccc12)C1CCCCN1 (stereo not drawn) [Mefloquine, reference compound]
Ratio lowest IC50 8hr/IC50 72hr ([1]; 3D7-A10): 3.0 | IC50 ([1]; 3D7, read-out: Early rings Mean IC50 (IC50^8h), 8-h exposure 0–8 hr, 3D7-A10, survival at 60 h): 258 nM | IC50 ([1]; 3D7, read-out: Early trophozoites Mean IC50 (IC50^8h), 8-h exposure 16–24 hr, 3D7-A10, survival at 60 h): 28.8 nM | IC50 ([1]; 3D7, read-out: IC50^8h values, text summary of Table S1): < 300 nM | IC50 ([1]; 3D7, read-out: Late rings Mean IC50 (IC50^8h), 8-h exposure 8–16 hr, 3D7-A10, survival at 60 h): 147 nM | IC50 ([1]; 3D7, read-out: Late trophozoites Mean IC50 (IC50^8h), 8-h exposure 24–32 hr, 3D7-A10, survival at 60 h): 29.5 nM | IC50 ([1]; 3D7, read-out: Schizonts Mean IC50 (IC50^8h), 8-h exposure 32–40 hr, 3D7-A10, survival at 60 h): 138 nM | Stage of peak activity (Figure 6) ([1]; period when the parasite was most susceptible (lowest IC50^8h)): only in trophozoites | Peak Activity (Table S1) ([1]; stage(s) with the lowest IC50^8h): Trophs | IC50 [2]: 9.8 nM | changes within the set of metabolites detected (low fold change group) ([3]; 10 × IC50^72h, 2.5 hr, trophozoites): did not induce major changes | Log2(fold changes) 3-phosphoglycerate ([3]; metabolite 3-phosphoglycerate, log2 fold change): 0.2359 | Log2(fold changes) 4-Pyridoxic acid ([3]; metabolite 4-Pyridoxic acid, log2 fold change): 0.0740 | Log2(fold changes) 4-aminobutyrate ([3]; metabolite 4-aminobutyrate, log2 fold change): -0.0258 | Log2(fold changes) 4-phosphopantetheine ([3]; metabolite 4-phosphopantetheine, log2 fold change): 0.0000 | Log2(fold changes) 4-phosphopantothenate ([3]; metabolite 4-phosphopantothenate, log2 fold change): 0.0024 | Log2(fold changes) 5-aminopentanoic acid ([3]; metabolite 5-aminopentanoic acid, log2 fold change): 0.0000 | Log2(fold changes) 5-methyl-THF ([3]; metabolite 5-methyl-THF, log2 fold change): 0.0000 | Log2(fold changes) 5-phosphoribosyl-1-pyrophosphate ([3]; metabolite 5-phosphoribosyl-1-pyrophosphate, log2 fold change): 0.0000 | Log2(fold changes) 6-phospho-D-gluconate ([3]; metabolite 6-phospho-D-gluconate, log2 fold change): -0.0079 | Log2(fold change) HVDD ([3]; metabolite HVDD): 0.0000 | Log2(fold change) Hydroxyisocaproic acid ([3]; metabolite Hydroxyisocaproic acid): 0.0000 | Log2(fold change) IDP ([3]; metabolite IDP): 0.0640 | Log2(fold change) IMP ([3]; metabolite IMP): -0.0534 | Log2(fold change) Inositol ([3]; metabolite Inositol): 0.0000 | Log2(fold change) Isopentyl-PP ([3]; metabolite Isopentyl-PP): 0.0000 | Log2(fold change) L-arginino-succinate ([3]; metabolite L-arginino-succinate): -0.3693 | Log2(fold change) LD ([3]; metabolite LD): 0.0808 | Log2(fold change) Myristoyl/tetradecanoyl-CoA ([3]; metabolite Myristoyl/tetradecanoyl-CoA): 0.0941 | Log2(fold change) N-Acetyl-L-alanine ([3]; metabolite N-Acetyl-L-alanine): -0.2190 | Log2(fold change) N-acetyl-L-ornithine ([3]; metabolite N-acetyl-L-ornithine): -0.0436 | Log2(fold change) N-acetyl-glucosamine-1/6-phosphate ([3]; metabolite N-acetyl-glucosamine-1/6-phosphate): 0.0000 | Log2(fold change) N-acetyl-glutamate ([3]; metabolite N-acetyl-glutamate): 0.0134 | Log2(fold change) N-acetyl-glutamine ([3]; metabolite N-acetyl-glutamine): 0.0000 | Log2(fold change) N-carbamoyl-L-aspartate ([3]; metabolite N-carbamoyl-L-aspartate): 0.0293 | Log2(fold change) NAD+ ([3]; metabolite NAD+): -0.0636 | Log2(fold change) NADH ([3]; metabolite NADH): 0.0000 | Log2(fold change) NADP+ ([3]; metabolite NADP+): -0.0054 | Log2(fold change) NADPH ([3]; metabolite NADPH): 0.3297 | Log2(fold change) O-acetyl-L-serine ([3]; metabolite O-acetyl-L-serine): 0.0000 | Log2(fold change) Octoluse 8/1P ([3]; metabolite Octoluse 8/1P): -0.0524 | Log2(fold change) Octoluse Bisphosphate ([3]; metabolite Octoluse Bisphosphate): -0.1015 | Log2(fold change) PD ([3]; metabolite PD): -0.1757 | Log2(fold change) PE ([3]; metabolite PE): -0.0476 | Log2(fold change) PEE ([3]; metabolite PEE): 0.0186 | Log2(fold change) PEEK ([3]; metabolite PEEK): 0.1844 | Log2(fold change) PVNF ([3]; metabolite PVNF): 0.0025 | Log2(fold change) Pyroglutamic acid ([3]; metabolite Pyroglutamic acid): -0.3976 | Log2(fold change) Pyrophosphate ([3]; metabolite Pyrophosphate): 0.0000 | Log2(fold change) Ribose-5-phosphate ([3]; metabolite Ribose-5-phosphate): 0.0147 | Log2(fold change) S-adenosyl-L-homocysteine ([3]; metabolite S-adenosyl-L-homocysteine): 0.1505 | Log2(fold change) S-adenosyl-L-methioninamine ([3]; metabolite S-adenosyl-L-methioninamine): 0.0000 | Log2(fold change) S-adenosyl-L-methionine ([3]; metabolite S-adenosyl-L-methionine): 0.0000 | Log2(fold change) S-methyl-5'-thioadenosine ([3]; metabolite S-methyl-5'-thioadenosine): 0.0813 | Log2(fold change) SD ([3]; metabolite SD): -0.0876 | Log2(fold change) SDL ([3]; metabolite SDL): -0.0202 | Log2(fold change) SID ([3]; metabolite SID): 0.0863 | Log2(fold change) Sedoheptulose bisphosphate ([3]; metabolite Sedoheptulose bisphosphate): 0.1126 | Log2(fold change) Thiamine pyrophosphate ([3]; metabolite Thiamine pyrophosphate): -0.0341 | Log2(fold changes) UDP-D-glucose ([3]; metabolite UDP-D-glucose, log2 fold change): 0.0242 | Log2(fold changes) UDP-D-glucuronate ([3]; metabolite UDP-D-glucuronate, log2 fold change): 0.0727 | Log2(fold changes) UDP-N-acetyl-glucosamine ([3]; metabolite UDP-N-acetyl-glucosamine, log2 fold change): -0.0280 | Log2(fold changes) UDP ([3]; metabolite UDP, log2 fold change): -0.6698 | Log2(fold changes) UMP ([3]; metabolite UMP, log2 fold change): -0.1565 | Log2(fold changes) UTP ([3]; metabolite UTP, log2 fold change): 0.0862 | Log2(fold change) hydroxyphenylpyruvate ([3]; metabolite hydroxyphenylpyruvate): 0.0000 | Log2(fold change) hydroxyproline/Aminolevulinate ([3]; metabolite hydroxyproline/Aminolevulinate): 0.0725 | Log2(fold change) hypoxanthine ([3]; metabolite hypoxanthine): 0.0000 | Log2(fold change) indole ([3]; metabolite indole): 0.0000 | Log2(fold change) inosine ([3]; metabolite inosine): -0.4356 | Log2(fold change) isoleucine ([3]; metabolite isoleucine): -0.0171 | Log2(fold change) lactate ([3]; metabolite lactate): -0.5208 | Log2(fold change) leucine ([3]; metabolite leucine): -0.1746 | Log2(fold change) lysine ([3]; metabolite lysine): -0.1798 | Log2(fold change) malate ([3]; metabolite malate): -0.0910 | Log2(fold change) maleic acid ([3]; metabolite maleic acid): -0.0602 | Log2(fold change) methionine ([3]; metabolite methionine): -0.0405 | Log2(fold change) myo-inositol ([3]; metabolite myo-inositol): -0.7507 | Log2(fold change) nicotinamide mononucleotide ([3]; metabolite nicotinamide mononucleotide): -0.0942 | Log2(fold change) nicotinate ([3]; metabolite nicotinate): -0.4821 | Log2(fold change) ornithine ([3]; metabolite ornithine): 0.0000 | Log2(fold change) orotate ([3]; metabolite orotate): -0.4063 | Log2(fold change) orotidine-5'-phosphate ([3]; metabolite orotidine-5'-phosphate): -0.7157 | Log2(fold change) oxaloacetate ([3]; metabolite oxaloacetate): 0.0000 | Log2(fold change) p-aminobenzoate ([3]; metabolite p-aminobenzoate): 0.0000 | Log2(fold change) p-hydroxybenzoate ([3]; metabolite p-hydroxybenzoate): 0.0000 | Log2(fold change) pantothenate ([3]; metabolite pantothenate): 0.0000 | Log2(fold change) phenylalanine ([3]; metabolite phenylalanine): -0.1685 | Log2(fold change) phenylpyruvate ([3]; metabolite phenylpyruvate): 0.0000 | Log2(fold change) phosphoenolpyruvate ([3]; metabolite phosphoenolpyruvate): 0.1912 | Log2(fold change) prephenate ([3]; metabolite prephenate): 0.0000 | Log2(fold change) proline ([3]; metabolite proline): -0.3045 | Log2(fold change) pyridoxine ([3]; metabolite pyridoxine): -0.5037 | Log2(fold change) pyruvate ([3]; metabolite pyruvate): -0.3898 | Log2(fold change) riboflavin ([3]; metabolite riboflavin): -0.1185 | Log2(fold change) ribose ([3]; metabolite ribose): -0.0288 | Log2(fold change) ribose-phosphate ([3]; metabolite ribose-phosphate): -0.1512 | Log2(fold change) ribulose-5-phosphate ([3]; metabolite ribulose-5-phosphate): 0.0069 | Log2(fold change) serine ([3]; metabolite serine): -0.0430 | Log2(fold change) sn-glycerol-3-phosphate ([3]; metabolite sn-glycerol-3-phosphate): 0.2262 | Log2(fold change) succinate/Methylmalonic acid ([3]; metabolite succinate/Methylmalonic acid): 0.1026 | Log2(fold change) succinyl-CoA/methylmalonyl-CoA ([3]; metabolite succinyl-CoA/methylmalonyl-CoA): 0.0000 | Log2(fold change) taurine ([3]; metabolite taurine): -0.0060 | Log2(fold change) thiamine ([3]; metabolite thiamine): -0.0860 | Log2(fold change) threonine/homoserine ([3]; metabolite threonine/homoserine): -0.1129 | Log2(fold change) thymidine ([3]; metabolite thymidine): 0.0000 | Log2(fold changes) thymine ([3]; metabolite thymine, log2 fold change): 0.0000 | Log2(fold changes) trehalose-6-Phosphate ([3]; metabolite trehalose-6-Phosphate, log2 fold change): 0.0000 | Log2(fold changes) tryptophan ([3]; metabolite tryptophan, log2 fold change): 0.0186 | Log2(fold changes) tyrosine ([3]; metabolite tyrosine, log2 fold change): 0.0223 | Log2(fold changes) uridine ([3]; metabolite uridine, log2 fold change): 0.0000
